Laboratory results as given in the supplement of paper PMC12613149.

Legend:
[1] = collision cross section (TIMS, N2 drift gas) of the primary ion; higher = larger gas-phase ion size
[2] = reversed-phase LC retention time (C18, 15 min MeOH gradient); higher = more hydrophobic / later elution
[3] = ionization mode: ESI+, ion species: [M+H]+
[4] = ionization mode: ESI-, ion species: [M-H]-
[5] = ionization mode: ESI+, ion species: [M]+

Compound	collision cross section [1, 3]	reversed-phase LC retention time [2, 3]	collision cross section [1, 4]	reversed-phase LC retention time [2, 4]	collision cross section [1, 5]	reversed-phase LC retention time [2, 5]
CCCCOC(=O)c1ccccc1C(=O)OCc1ccccc1 [Benzylbutylphthalate]	178.47 Å²	16.3 min				
CCCCCCCCCCCCCCCC[N+](C)(C)Cc1ccccc1 [Benzyldimethylhexadecylammonium]					213.31 Å²	17.8 min
CCCCCCCCCCCCCC[N+](C)(C)Cc1ccccc1 [Benzyldimethyltetradecylammonium]					204.79 Å²	17 min
C[N+](C)(C)Cc1ccccc1 [Benzyltrimethylammonium]					129.9 Å²	5.04 min
CCC(=O)OCC(=O)C1(OC(=O)CC)C(C)CC2C3CCC4=CC(=O)C=CC4(C)C3(F)C(O)CC21C (centres undefined) [Betamethasone dipropionate]	220.81 Å²	15.7 min	216.67 Å²	16.2 min		
CCCCC(=O)O[C@]1(C(=O)CO)[C@@H](C)C[C@H]2[C@@H]3CCC4=CC(=O)C=C[C@]4(C)[C@@]3(F)[C@@H](O)C[C@@]21C [Betamethasone-17-valerate]	216.68 Å²	15.5 min	216.5 Å²	16 min		
CC(O)(CS(=O)(=O)c1ccc(F)cc1)C(=O)Nc1ccc(C#N)c(C(F)(F)F)c1 (centres undefined) [Bicalutamide]	205.43 Å²	13.4 min	184.69 Å²	13.7 min		
CC1(C)CC(OC(=O)CCCCCCCCC(=O)OC2CC(C)(C)NC(C)(C)C2)CC(C)(C)N1 [Bis(2,2,6,6-tetramethyl-4-piperidyl)sebacate]	225.08 Å²	11.8 min				
CCCCC(CC)COP(=O)(O)OCC(CC)CCCC (centres undefined) [Bis(2-ethylhexyl)phosphate]	223.46 Å²	19.8 min	188.09 Å²	17.1 min		
CCCCC(CC)COC(=O)c1ccccc1C(=O)OCC(CC)CCCC (centres undefined) [Bis(2-ethylhexyl)phthalate]	212.9 Å²	19.1 min				
CC(C)NCC(O)COc1ccc(COCCOC(C)C)cc1 (centres undefined) [Bisoprolol]	191.63 Å²	11 min				
CC(C)(c1ccc(OCC(O)CCl)cc1)c1ccc(OCC(O)CCl)cc1 (centres undefined) [Bisphenol A bis(3-chloro-2-hydroxypropyl) ether]	194.74 Å²	14.2 min				
Oc1ccc(C(c2ccc(O)cc2)(C(F)(F)F)C(F)(F)F)cc1 [Bisphenol AF]			165.55 Å²	14.8 min		
Oc1ccc(C(c2ccccc2)(c2ccccc2)c2ccc(O)cc2)cc1 [Bisphenol BP]			196.58 Å²	16 min		
CCC(C)(c1ccc(O)cc1)c1ccc(O)cc1 [Bisphenol B]			165.01 Å²	14.3 min		
Oc1ccc(C(=C(Cl)Cl)c2ccc(O)cc2)cc1 [Bisphenol C]			164.81 Å²	14.5 min		
CC(c1ccc(O)cc1)c1ccc(O)cc1 [Bisphenol E]			156.4 Å²	12.7 min		
Oc1ccc(Cc2ccc(O)cc2)cc1 [Bisphenol F]			152.1 Å²	11.9 min		
CC(C)c1cc(C(C)(C)c2ccc(O)c(C(C)C)c2)ccc1O [Bisphenol G]			187.67 Å²	16.8 min		
CC(C)(c1ccc(O)c(-c2ccccc2)c1)c1ccc(O)c(-c2ccccc2)c1 [Bisphenol PH]			204.63 Å²	17.2 min		
O=S(=O)(c1ccc(O)cc1)c1ccc(O)cc1 [Bisphenol S]	155.2 Å²	9.38 min	154.29 Å²	7.15 min		

Compound	collision cross section [1, 3]	reversed-phase LC retention time [2, 3]	collision cross section [1, 4]	reversed-phase LC retention time [2, 4]	collision cross section [1, 5]	reversed-phase LC retention time [2, 5]
Oc1ccc(C2(c3ccc(O)cc3)CCCCC2)cc1 [Bisphenol Z]			173.12 Å²	15.3 min		
CC(C)(C)C(O)C(Oc1ccc(-c2ccccc2)cc1)n1cncn1 (centres undefined) [Bitertanol]	192.15 Å²	15.9 min				
O=C(Nc1ccccc1-c1ccc(Cl)cc1)c1cccnc1Cl [Boscalid]	177.19 Å²	14.2 min				
CCC(C)n1c(=O)[nH]c(C)c(Br)c1=O (centres undefined) [Bromacil]	144.76 Å²	11.4 min				
CCCCc1c(C)nc(NCC)nc1OS(=O)(=O)N(C)C [Bupirimate]	176.08 Å²	14.7 min				
CC(NC(C)(C)C)C(=O)c1cccc(Cl)c1 (centres undefined) [Bupropion]	158.6 Å²	10.3 min				
Oc1ccc2c(c1)C13CCCCC1(O)C(C2)N(CC1CCC1)CC3 (centres undefined) [Butorphanol]			188.37 Å²	16.6 min		
Cn1c(=O)c2c(ncn2C)n(C)c1=O [Caffeine]	139.07 Å²	7.7 min				
CC12CCC(=O)C=C1C=CC1[C@@H]2CCC2(C)[C@H]1CCC21CCC(=O)O1 (some centres undefined) [Canrenone]	186.86 Å²	14.2 min				
COC(=O)Nc1nc2ccccc2[nH]1 [Carbendazim]	137.16 Å²	7.33 min				
CNC(=O)Oc1cccc2c1OC(C)(C)C2 [Carbofuran]	147.19 Å²	11.7 min				
Nc1nc(=O)c2ncn(COCC(=O)O)c2[nH]1 [Carboxy-aciclovir]	150.15 Å²	2.54 min				
C[C@H](CCC(=O)O)[C@H]1CC[C@H]2[C@@H]3[C@H](O)C[C@@H]4C[C@H](O)CC[C@]4(C)[C@H]3CC[C@]12C [Chenodeoxycholic acid]			209.87 Å²	15.6 min		
CNC(=O)c1cc(Cl)cc(C)c1NC(=O)c1cc(Br)nn1-c1ncccc1Cl [Chlorantraniliprole]	199.14 Å²	13.5 min	197.51 Å²	13.8 min		
Cc1cc(Cl)ccc1/N=C/N(C)C [Chlordimeform]	145.93 Å²	8.19 min				
CCOP(=O)(OCC)OC(=CCl)c1ccc(Cl)cc1Cl [Chlorfenvinphos]	169.3 Å²	15.7 min				
NC(=NCCCCCCN=C(N)N=C(N)Nc1ccc(Cl)cc1)N=C(N)Nc1ccc(Cl)cc1 [Chlorohexidine]	224.29 Å²	12.4 min				
Oc1ccc(Cl)cc1Cc1ccccc1 [Chlorophene]			147.97 Å²	15.9 min		
N#Cc1c(O)c(Cl)c(Cl)c(C#N)c1Cl [Chlorothalonil-4-hydroxy]			135.03 Å²	11.8 min		
Cc1ccc(NC(=O)N(C)C)cc1Cl [Chlorotoluron]	147.58 Å²	12.5 min				

Further lines, results first:

collision cross section [1, 3]	reversed-phase LC retention time [2, 3]	collision cross section [1, 4]	reversed-phase LC retention time [2, 4]	collision cross section [1, 5]	reversed-phase LC retention time [2, 5]	Compound
119.54 Å²	4.16 min					c1ccc2[nH]cnc2c1 [Benzimidazole]
148.22 Å²	15.1 min					COc1ccc(C(=O)c2ccccc2)c(O)c1 [Benzophenone-3]
		168.24 Å²	9.83 min			COc1cc(O)c(C(=O)c2ccccc2)cc1S(=O)(=O)O [Benzophenone-4]
119.49 Å²	7.82 min					c1ccc2[nH]nnc2c1 [Benzotriazole]
				183.77 Å²	14.7 min	CCCCCCCCCC[N+](C)(C)Cc1ccccc1 [Benzyldimethyldecylammonium]
				196.05 Å²	16 min	CCCCCCCCCCCC[N+](C)(C)Cc1ccccc1 [Benzyldimethyldodecylammonium]
179.03 Å²	14 min	181.16 Å²	12.3 min			CC(C)(Oc1ccc(CCNC(=O)c2ccc(Cl)cc2)cc1)C(=O)O [Bezafibrate]
		177.92 Å²	13.1 min			O=C(O)c1cc(Oc2ccc(Cl)cc2Cl)ccc1[N+](=O)[O-] [Bifenox free acid]
		166.25 Å²	12.9 min			COc1ccc(-c2coc3cc(O)cc(O)c3c2=O)cc1 [Biochanin A]
		161.33 Å²	13.4 min			CC(C)(c1ccc(O)cc1)c1ccc(O)cc1 [Bisphenol A]
231.31 Å²	14.8 min					COc1ccccc1Oc1c(NS(=O)(=O)c2ccc(C(C)(C)C)cc2)nc(-c2ncccn2)nc1OCCO [Bosentan]
		171.71 Å²	16.3 min			Oc1c(Br)cc(Cl)cc1Cc1cc(Cl)cc(Br)c1O [Bromochlorophen]
		147.76 Å²	14.2 min			CCCCOC(=O)c1ccc(O)cc1 [Butyl 4-hydroxybenzoate]
196.78 Å²	13.3 min	202.36 Å²	9.52 min			CCOc1nc2cccc(C(=O)O)c2n1Cc1ccc(-c2ccccc2-c2nnn[nH]2)cc1 [Candesartan]
150.05 Å²	12.3 min					NC(=O)N1c2ccccc2C=Cc2ccccc21 [Carbamazepine]
155.79 Å²	11 min					CCNC(=O)[C@@H](C)OC(=O)Nc1ccccc1 [Carbetamide]
132.73 Å²	11.7 min	129.53 Å²	12.9 min			c1ccc2c(c1)[nH]c1ncccc12 [Carboline]
189.33 Å²	15.1 min	191.15 Å²	15.5 min			Cc1ccc(-c2cc(C(F)(F)F)nn2-c2ccc(S(N)(=O)=O)cc2)cc1 [Celecoxib]
200.88 Å²	13.5 min	195.01 Å²	14.6 min			O=C(O)COCCN1CCN(C(c2ccccc2)c2ccc(Cl)cc2)CC1 (centres undefined) [Cetirizine]
		165.75 Å²	9.83 min			O=C(NC(CO)C(O)c1ccc([N+](=O)[O-])cc1)C(Cl)Cl (centres undefined) [Chloramphenicol]
